Source: patent US8129340B2, “Inhibitors of protein phosphatase 1, GADD34 and protein phosphatase 1/GADD34 complex, preparation and uses thereof” (Institut Gustave Roussy, priority 2006, dated 2012)

Columns and labels:
CRT [1] = test: Inhibitory profile of CRT exposure (pre-incubation with inhibitors, immunocytofluorometry); assay type: cell-based; settings: pre-incubation for 1 h
Description: FIG. 3S: Inhibitory profile of CRT exposure. Cells were treated with mitoxantrone or inhibitors of PP1/GADD34, after pre-incubation for 1 h with the indicated inhibitors of protein synthesis (cycloheximide), RNA synthesis (actinomycin D), microtubuli (nocodazol), or the actin cytoskeleton (latrunculin A). Then, CRT expression was determined by immunocytofluorometry. Results are means of triplicates±SD for one representative experiment out of three.

CT26 tumour cells = test: Anti-tumour vaccination: dying treated CT26 cells injected in one flank, later challenge with live tumour cells; assay type: in vivo, BALB/c mice
CT26 cells = test: Phagocytosis of CT26 tumour cells by dendritic cells (FACS, double positive cells); assay type: cell-based, BALB/c mice; settings: within a few hours after treatment
Description: FIG. 3A, FIG. 3B: Correlation between tumour cell phagocytosis and CRT exposure. Tumour cells labelled with Cell Tracker Green were cultured with CD11c-expressing DC and the percentage of DC taking up tumour cells was determined (A) and correlated with the CRT surface exposure (B), measured as in FIG. 2E.
Mitoxantrone-treated or control cells were incubated with a blocking chicken anti-CRT antibody, followed by detection of phagocytosis by CD.
Cells were transfected with the indicated siRNAs and optionally treated with rCRT, followed by immunoblot (FIG. 3D) detection of surface CRT (FIG. 3E) and phagocytosis by DC (FIG. 3F). Results are triplicates (X±SD) and representative of three independent experiments. * denotes statistically significant differences using the Student t′ test at p<0.001.
BM cells were flushed from the tibias and femurs of BALB/c mice with culture medium composed of RPMI 1640 medium (Invitrogen Life Technologies) supplemented with 10% heat-inactivated FBS (Invitrogen), sodium pyruvate, 50 μM 2-ME (Sigma), 10 mM HEPES (pH 7.4), and penicillin/streptomycin (Invitrogen). After one centrifugation, BM cells were resuspended in Tris-ammonium chloride for 2 min to lyse RBC. After one more centrifugation, BM cells (1×10^6 cells/ml) were cultured in medium supplemented with 100 ng/ml recombinant mouse FLT3 ligand (R&D systems) in 6-well plates (Costar Corning). After 7 days, the non-adherent and loosely adherent cells were harvested with Versene, washed and transferred in 12-well plates (1.5×10^6 cells/plate) for cocultures with tumour cells.
In 12-well plates, […] adherent CT26 cells were labelled with Celltracker Green (Calbiochem) and then incubated with drugs. In some experiments viable CT26 were coated with 2 μg/10^6 cells of chicken anti-CRT antibody (ABR affinity bioreagents) or an isotype control for 30 min prior to washing and feeding to dendritic cells Cs. Alternatively CT26 cells were coated with 2 μg/10^6 cells of rCRT on ice for 30 min and washed twice prior to addition to dendritic cells. Cells were then harvested, washed three times with medium supplemented with FBS and cocultured with immature DC for 2 hours at a ratio of 1:1 and 1:5. At the end of the incubation, cells were harvested with versene, pooled with non-adherent cells present in the supernatant, washed and stained with CD11c-FITC antibody. Phagocytosis was assessed by FACS analysis of double positive cells. Phagocytic indexes refer to the ratio between values obtained at 4° C. and values obtained at 37° C. of co-incubation between DC and tumour cells.

cell surface CRT [2] = test: CRT exposure on enucleated CT26 cells (cytoplasts); assay type: cell-based, murine
Description: FIG. 5A: CRT exposure after anthracyclin treatment in the absence of a nucleus. Intact cells or enucleated cells (cytoplasts) were treated for 2 hours with mitoxantrone, followed by immunofluorescence detection of CRT exposure. Inserts show the effective removal of Hoechst 33342-stainable nuclei from the cytoplasts.
Trypsinized CT26 cells were enucleated as described in the publication of Andreau, K. et al. Contagious apoptosis facilitated by the HIV-1 envelope. Fusion-induced cell-to-cell transmission of a lethal signal. J. Cell Sci. 117, 5643-53 (2004). Briefly, cells were treated in 2 ml of complete RPMI medium containing cytochalasin B (10 μg/ml; Sigma) and DNase I (80 U/ml; Sigma). Cell suspension was adjusted to a final concentration of 5×10^6/ml and incubated at 37° C. for 45 minutes before being layered onto a previously prepared discontinuous Ficoll (Pharmacia) density gradient (3 ml of 100%, in 1 ml of 90% and 3 ml of 55% Ficoll Paque layer containing 5 μg/ml cytochalasin B and 40 U/ml DNase I; gradients were prepared in ultracentrifuge tubes and pre-equilibrated at 37° C. in a CO2 incubator overnight). […] Then the cell surface CRT was detected (see materials and methods) and the viability was determined by with propidium iodine staining (2 μg/ml, Sigma) for 5 min followed by cytofluorometric analysis. […] Phagocytosis was assessed by FACS analysis of double positive cells.

CRT [3] = test: CRT exposure on tumour cell lines of murine origin (MCA205, B16F10, J558); assay type: cell-based
CRT [4] = test: CRT exposure on tumour cell lines of human origin (HeLa, A549, HCT116); assay type: cell-based
CT26 tumours [5] = test: Intratumoural treatment of established CT26 tumours in immunocompetent mice; assay type: in vivo, BALB/c mice (wild type); settings: for therapeutic effect of single agent on established tumours, immunocompetent mice: single intratumoural injection, 14-day-old CT26 tumours
CT26 tumours [6] = test: Intratumoural treatment of established CT26 tumours in immunodeficient mice; assay type: in vivo, athymic nu/nu Balb/c mice; settings: single intratumoural injection
cell surface CRT [7] = test: Fluorescence detection of cell surface CRT on CT26 cells (cytofluorometry); assay type: cell-based, murine; settings: agent alone
Description: FIG. 1SA, FIG. 1SB: Kinetics of CRT exposure. CT26 cells were treated with mitoxantrone for the indicated period, followed by immunofluorescence staining with a CRT-specific antibody and cytofluorometric analysis.
FIG. 2E: Correlation between CRT exposure and immunogenicity. The surface exposure of CRT was determined by immunofluorescence cytometry while gating on viable (propidium iodine-negative) cells (inserts) and was correlated with the immunogenicity of cell death (as determined in FIG. 1). CO, control; Tg, thapsigargin; Tu, tunicamycin.
FIG. 5E: Kinetics of CRT exposure determined by FACS analysis after incubation of cells with the indicated agents.
FIG. 5F-FIG. 5G: PP1/GADD34 inhibitors render cell immunogenic via CRT. Tumour cells were first transfected with a control siRNA or a CRT-specific siRNA and then treated in vitro with etoposide, alone or in combination with PP1/GADD34 inhibitors. […] The results represent the % of tumour free mice (comprising a total of 12 to 18 mice per group).
CT26 cells (on a glass slide or in 12-well plates) were first washed with FACS buffer (1×PBS, 5% fetus bovine serum, and 0.1% sodium azide) and then incubated with rabbit anti-mouse CRT antibody (1:100, Stressgen) in FACS buffer at 4° C. for 30 min. Cells reacted with anti-rabbit IgG (H+L) Alexa fluor 488-conjugates (1:500) in FACS buffer at 4° C. for 30 min. After washing three times with FACS buffer, surface CRT was detected by cytofluorometric analysis on a FACS Vantage. In some experiments, cells were fixed with 4% paraformaldehyde, counterstained with Hoechst (2 μM; Sigma), followed by fluorescence microscopic assessment with a Leica IRE2 microscope equipped with a DC300F camera.

ERp57 = test: Flow cytometric detection of surface ERp57 on HeLa cells; assay type: cell-based, human; settings: 150 nM, 2 h
Description: HeLa cells were treated with or without mitoxantrone (MTX, 1 μM) or tautomycin (Tau, 150 nM, Sigma) for 2 h. Cells were washed twice with PBS and fixed in PFA (4% w/v) for 5 min. HeLa cells were stained with an antibody against Erp57 (pAb from Abcam, ab10827) at 1:200 dilution or isotype control, in staining buffer (PBS, 1% FCS) for 30 min on ice, followed by washing. An anti-rabbit Alexa fluor 488 immunoglobulin conjugate (Molecular Probes-Invitrogen) diluted at 1:500 was added for an additional 30 min on ice before washing and analysed by flow cytometry (FACScan, Becton Dickinson). Propidium Iodide (50 μg/ml, Becton Dickinson) was added to the samples to label and exclude permeabilized (dead) cells. The CellQuest software was used to analyse the mean fluorescence intensity (MFI) and the percentage of ERp57 positive cells.

SMILES	effect on CRT exposure induced by anthracyclins and PP1/GADD34 inhibitors (CRT [1])	immunogenicity of cell death (protection against tumour growth, anti-tumour vaccination) (CT26 tumour cells; dying CT26 cells treated with agent injected into one flank, live tumour cells in opposite flank 8 days later)	phagocytosis of drug-treated tumour cells by DC (CT26 cells)	time to CRT exposure in cytoplasts (cell surface CRT [2]) [h]	CRT exposure on murine tumour cell lines (CRT [3])	CRT exposure on human tumour cell lines (CRT [4])	therapeutic effect of single agent on established tumours, immunocompetent mice (CT26 tumours [5])	therapeutic effect of single agent on established tumours, nu/nu mice (CT26 tumours [6])	induction of immunogenic cell death by the inhibitor alone (CT26 tumour cells; without cell death inducer)	induction of CRT exposure at the cell surface (cell surface CRT [7])	surface exposure of ERp57, HeLa cells (ERp57)	therapeutic effect combined with a cell death inducer (etoposide or mitomycin C), immunocompetent mice (CT26 tumours [5]; intratumoural injection with etoposide or mitomycin C)
C/C1=C/C(=O)O[C@@H]2C[C@@H](CC[C@H](C)/C=C\C=C\CC1)O[C@@](O)([C@@H]1CSC(=O)N1)C2 [latrunculin A]	abolished											
O=C1c2c(O)ccc(O)c2C(=O)c2c(NCCNCCO)ccc(NCCNCCO)c21 [mitoxantrone]		elicited immunogenic cell death	acquired the property to be phagocytosed by DC quickly	≤ 1	induced CRT exposure	induced CRT exposure	able to cause their permanent regression in some but not all cases	no cure				
CO[C@H]([C@H](O)CC(=O)[C@@H](C)[C@@H](O)CC[C@@H](C)[C@@H]1O[C@]2(CC[C@@H](C)[C@H](CC[C@H](C)C(C)=O)O2)CC[C@@H]1C)[C@H](OC(=O)C[C@@H](O)C1=C(C)C(=O)OC1=O)C(C)C [tautomycin]							no major therapeutic effect	no major therapeutic effect	not sufficient to induce immunogenic cell death	efficiently induced	stimulates the surface exposure or ERp57	stable disease or complete tumour regression
